The values that follow are results of earlier work, collected in patent publication US12721834B2, “Combination treatment for Netherton syndrome” (Quoin Pharmaceuticals Inc., priority 2023, dated 2026).

The conditions of this series: in vivo.

Take “Poly(vinylpyrrolidone/1-eicosene) [PVPE]”: the dermal toxicity entry is “no demonstrable dermal toxicity”. Turning to “Poly(vinylpyrrolidone/1-hexadecene) [PVPH]”, the dermal toxicity result is reported as “no demonstrable dermal toxicity”.
